Where two headings read alike, the source gives them in different places.
Experiments:
[1] = molar aqueous solubility, log value; cited from earlier work
[2] = n-octanol/water partition coefficient LogPoct calculated from solubility data; conditions: calculated as logPoct = (0.99 - logSw)/1.34
Source text: where logSw is the molar solubility and logPoct is the water-oil partition coefficient. Using this equation, values for logPoct can be calculated from solubility data.

[3] = for AUC(0-∞) / Cmax / T1/2 / Tmax: mean, n = 6
Protocol: Six Yucatan mini-pigs weighing 20-25 kg were used. […] A total of 6 animals were utilized in a full crossover design where each animal received a 1.0 mg dose by all administration routes in an injection volume of 0.1 mL.
The intravenous dose was administered an ear vein catheter. Subcutaneous delivery was through a standard 0.5 inch, 30 gauge needle. Delivery to the dermis was through a three point microneedle array having three 34 gauge needles with 7 mm spacing and 1 mm depth to right flank of the animal between the rib cage and the rear leg. Subcutaneous and intravenous administration was by manual injection seconds. Administration to the dermis was at a rate of 90 μL/min by a syringe pump.
The study design was a full crossover with each animal receiving intravenous, subcutaneous and dermal administration. Each animal received three treatments over a two-week period with a minimal washout period of 2 days between subsequent doses. Dosing was according to the schedule shown below in Table 2.
Blood samples were obtained from the vena cava access port immediately before dosing and at 5, 10, 15, 20, 30, 45, 60 minutes and 2, 3, 4, 6, 8, 10, 14 and 24 hours after administration. Timing was started at the cessation of injection for a given method. The venous samples were collected into EDTA containing Vacutainer tubes, centrifuged at approximately 1000 g for 10 minutes at 4° C. After centrifugation, the plasma layer was transferred to plastic storage vials and stored frozen at −70° C. until assayed.
Assay of the pig plasma samples was performed by HPLC analysis. Results are shown below in Tables 3
Pharmacokinetic parameters were estimated using Watson Drug Metabolism Laboratory Information Management System, version 6.2.0.02 (Innaphase Corp., Philadelphia, Pa.). Parameters determined were the maximal plasma concentration, Cmax, time to maximal plasma concentration Tmax, area under the curve estimated to t=infinity, Tmax and the half-life for decrease in plasma concentration, T1/2.

Compound: CCCCCCCC(=O)OCN1C(=O)NC(c2ccccc2)(c2ccccc2)C1=O [3-octanoloxymethyl-5,5-diphenylhydantoin]
- LogSw [1]: −6.52 moles/L
- LogPoct [2]: 5.60

Compound: CCCCC(=O)OCN1C(=O)NC(c2ccccc2)(c2ccccc2)C1=O [3-pentanoyloxymethyl-5,5-diphenylhydantoin]
- LogSw [1]: −4.68 moles/L

Compound: O=C1NC(=O)C2(CC2)C(=O)N1 [5,5-(CH2)2-barbituric acid]
- LogPoct [2]: 2.15

Compound: O=C1NC(=O)C2(CCC2)C(=O)N1 [5,5-(CH2)3-barbituricacid]
- LogPoct [2]: 1.98

Compound: O=C1NC(=O)C2(CCCC2)C(=O)N1 [5,5-(CH2)4-barbituric acid]
- LogPoct [2]: 3.97

Compound: O=C1NC(=S)NC(=O)C12CCCCC2 [5,5-(CH2)5-2-thiobarbituric acid]
- LogSw [1]: −3.46 moles/L
- LogPoct [2]: 3.32

Compound: O=C1NC(=O)C2(CCCCC2)C(=O)N1 [5,5-(CH2)5-barbituric acid]
- LogPoct [2]: 3.02

Compound: O=C1NC(=O)C2(CCCCCCC2)C(=O)N1 [5,5-(CH2)7-barbituric acid]
- LogPoct [2]: 2.96

Compound: O=C1NC(=O)C2(CCCCCCCCCC2)C(=O)N1 [5,5-(CH2)10-barbituric acid]
- LogSw [1]: −4.59 moles/L
- LogPoct [2]: 4.16

Compound: O=C1NC(=O)C2(CCCCCCCCCCC2)C(=O)N1 [5,5-(CH2)11-barbituric acid]
- LogSw [1]: −5.80 moles/L
- LogPoct [2]: 5.07

Compound: CC(C)C1(C(C)C)C(=O)NC(=O)NC1=O [5,5-di-iPr-barbituric acid]
- LogPoct [2]: 2.81

Compound: O=C1NC(=O)C(c2ccccc2)(c2ccccc2)N1 [5,5-diphenyhlhydantoin]
- LogSw [1]: −4.10 moles/L
- LogPoct [2]: 3.80

Compound: O=C1NC(=O)C(c2ccccc2)(c2ccccc2)C(=O)N1 [5,5-diphenylbarbituric acid]
- LogPoct [2]: 3.87

Compound: CCCC(C)C1(CC)C(=O)NC(=S)NC1=O (stereo not shown) [5-Et-5-(1-methylbutyl)-2-thiobarbituric acid]
- LogSw [1]: −3.68 moles/L
- LogPoct [2]: 3.49

Compound: CCC1(CC=C(C)C)C(=O)NC(=O)NC1=O [5-Et-5-(3-methylbut-2-enyl)-barbituric acid]
- LogPoct [2]: 2.42

Compound: C=CCC1(CC)C(=O)NC(=O)NC1=O [5-Et-5-allyl-barbituric acid]
- LogSw [1]: −1.61 moles/L
- LogPoct [2]: 1.64

Compound: C=CCC1(C)C(=O)NC(=O)NC1=O [5-Me-5-allylbartituric acid]
- LogPoct [2]: 1.60

Compound: CCC1(C)C(=O)NC(=O)NC1=O [5-Me-5-ethylbarbituric acid]
- LogSw [1]: −1.23 moles/L
- LogPoct [2]: 1.66

Compound: CC1(c2ccccc2)C(=O)NC(=O)NC1=O [5-Me-5-phenylbarbituric acid]
- LogSw [1]: −2.38 moles/L
- LogPoct [2]: 2.51

Compound: CCC1(CC)C(=O)NC(=S)NC1=O [5-diethyl-2-thiobarbituric acid]
- LogPoct [2]: 2.36

Compound: C=CCC1(C(C)C)C(=O)NC(=O)NC1=O [5-iPr-5-allyl-barbituric acid]
- LogSw [1]: −1.71 moles/L

Compound: S=c1cc(-c2ccccc2)ss1 [5-phenyldithiolethione]
- LogSw [1]: −5.64 moles/L
- LogPoct [2]: 4.95

Compound: CC(C)=CCC1(C(C)(C)C)C(=O)NC(=O)NC1=O [5-tBu-5-(3-methylbut-2-enyl)-barbituric acid]
- LogPoct [2]: 3.39

Compound: CN[C@@H]1Cc2cccc3[nH]c(=S)n(c23)C1 [(R)-5,6-dihydro-5-(methylamino)-4H-imidazo[4,5-ij]-quinoline-2(1H)-thione]
- Plasma Concentration, Mean ([3]; ID (dermis), 1.0 mg dose, 5 min): 24.8 ng/mL
- Plasma Concentration, Mean ([3]; ID (dermis), 1.0 mg dose, 10 min): 22.5 ng/mL
- Plasma Concentration, Mean ([3]; ID (dermis), 1.0 mg dose, 15 min): 16.4 ng/mL
- Plasma Concentration, Mean ([3]; ID (dermis), 1.0 mg dose, 20 min): 18.0 ng/mL
- Plasma Concentration, Mean ([3]; ID (dermis), 1.0 mg dose, 30 min): 14.0 ng/mL
- Plasma Concentration, Mean ([3]; ID (dermis), 1.0 mg dose, 45 min): 9.9 ng/mL
- Plasma Concentration, Mean ([3]; ID (dermis), 1.0 mg dose, 1 hr): 9.0 ng/mL
- Plasma Concentration, Mean ([3]; ID (dermis), 1.0 mg dose, 2 hr): 5.7 ng/mL
- Plasma Concentration, Mean ([3]; ID (dermis), 1.0 mg dose, 3 hr): 4.2 ng/mL
- Plasma Concentration, Mean ([3]; ID (dermis), 1.0 mg dose, 4 hr): 3.6 ng/mL
- Plasma Concentration, Mean ([3]; ID (dermis), 1.0 mg dose, 6 hr): 0.4 ng/mL
- Plasma Concentration, Mean ([3]; ID (dermis), 1.0 mg dose, 8 hr): 0 ng/mL
- Plasma Concentration, Mean ([3]; ID (dermis), 1.0 mg dose, 10 hr): 0 ng/mL
- Plasma Concentration, Mean ([3]; ID (dermis), 1.0 mg dose, 14 hr): 0 ng/mL
- Plasma Concentration, Mean ([3]; ID (dermis), 1.0 mg dose, 24 hr): 0 ng/mL
- AUC(0-∞) ([3]; ID (dermis), 1.0 mg dose): 33.6 ng·h/mL
- Cmax ([3]; ID (dermis), 1.0 mg dose): 26.7 ng/mL
- T1/2 ([3]; ID (dermis), 1.0 mg dose): 96.6 min
- Tmax ([3]; ID (dermis), 1.0 mg dose): 8.34 min
- Heterogeneity of Regression analysis of plasma values, dermis versus intravenous administration ([3]; ID versus IV, both different from SC): not different from each other
- Cmax values following administration to the dermis compared with subcutaneous administration ([3]; ID versus SC, 1.0 mg dose): consistently greater
- Plasma levels of drug after administration into the dermis compared with subcutaneous administration ([3]; ID versus SC, 1.0 mg dose): higher plasma levels
- Tmax values following administration to the dermis compared with subcutaneous administration ([3]; ID versus SC, 1.0 mg dose): consistently lesser
- Plasma Concentration, Mean ([3]; IV, 1.0 mg dose, 5 min): 29.8 ng/mL
- Plasma Concentration, Mean ([3]; IV, 1.0 mg dose, 10 min): 20.5 ng/mL
- Plasma Concentration, Mean ([3]; IV, 1.0 mg dose, 15 min): 18.5 ng/mL
- Plasma Concentration, Mean ([3]; IV, 1.0 mg dose, 20 min): 15.3 ng/mL
- Plasma Concentration, Mean ([3]; IV, 1.0 mg dose, 30 min): 13.1 ng/mL
- Plasma Concentration, Mean ([3]; IV, 1.0 mg dose, 45 min): 10.7 ng/mL
- Plasma Concentration, Mean ([3]; IV, 1.0 mg dose, 1 hr): 9.1 ng/mL
- Plasma Concentration, Mean ([3]; IV, 1.0 mg dose, 2 hr): 6.7 ng/mL
- Plasma Concentration, Mean ([3]; IV, 1.0 mg dose, 3 hr): 2.8 ng/mL
- Plasma Concentration, Mean ([3]; IV, 1.0 mg dose, 4 hr): 1.6 ng/mL
- Plasma Concentration, Mean ([3]; IV, 1.0 mg dose, 6 hr): 2.6 ng/mL
- Plasma Concentration, Mean ([3]; IV, 1.0 mg dose, 8 hr): 0 ng/mL
- Plasma Concentration, Mean ([3]; IV, 1.0 mg dose, 10 hr): 0 ng/mL
- Plasma Concentration, Mean ([3]; IV, 1.0 mg dose, 14 hr): 0 ng/mL
- Plasma Concentration, Mean ([3]; IV, 1.0 mg dose, 24 hr): 0 ng/mL
- AUC(0-∞) ([3]; IV, 1.0 mg dose): 32.4 ng·h/mL
- Cmax ([3]; IV, 1.0 mg dose): 29.8 ng/mL
- T1/2 ([3]; IV, 1.0 mg dose): 87 min
- Tmax ([3]; IV, 1.0 mg dose): 4.98 min
- Plasma Concentration, Mean ([3]; SC, 1.0 mg dose, 5 min): 10.0 ng/mL
- Plasma Concentration, Mean ([3]; SC, 1.0 mg dose, 10 min): 15.3 ng/mL
- Plasma Concentration, Mean ([3]; SC, 1.0 mg dose, 15 min): 16.0 ng/mL
- Plasma Concentration, Mean ([3]; SC, 1.0 mg dose, 20 min): 14.5 ng/mL
- Plasma Concentration, Mean ([3]; SC, 1.0 mg dose, 30 min): 14.0 ng/mL
- Plasma Concentration, Mean ([3]; SC, 1.0 mg dose, 45 min): 9.9 ng/mL
- Plasma Concentration, Mean ([3]; SC, 1.0 mg dose, 1 hr): 8.9 ng/mL
- Plasma Concentration, Mean ([3]; SC, 1.0 mg dose, 2 hr): 5.6 ng/mL
- Plasma Concentration, Mean ([3]; SC, 1.0 mg dose, 3 hr): 4.1 ng/mL
- Plasma Concentration, Mean ([3]; SC, 1.0 mg dose, 4 hr): 2.2 ng/mL
- Plasma Concentration, Mean ([3]; SC, 1.0 mg dose, 6 hr): 1.6 ng/mL
- Plasma Concentration, Mean ([3]; SC, 1.0 mg dose, 8 hr): 0.6 ng/mL
- Plasma Concentration, Mean ([3]; SC, 1.0 mg dose, 10 hr): 0 ng/mL
- Plasma Concentration, Mean ([3]; SC, 1.0 mg dose, 14 hr): 0 ng/mL
- Plasma Concentration, Mean ([3]; SC, 1.0 mg dose, 24 hr): 0 ng/mL
- AUC(0-∞) ([3]; SC, 1.0 mg dose): 32.1 ng·h/mL
- Cmax ([3]; SC, 1.0 mg dose): 16.9 ng/mL
- T1/2 ([3]; SC, 1.0 mg dose): 90 min
- Tmax ([3]; SC, 1.0 mg dose): 13.3 min

Compound: CC(C)CN(C[C@@H](O)[C@H](Cc1ccccc1)NC(=O)O[C@H]1CCOC1)S(=O)(=O)c1ccc(N)cc1 [Amprenavir]
- LogSw [1]: −4.00 moles/L
- LogPoct [2]: 3.72

Compound: COc1ccc(-c2cc(=S)ss2)cc1 [Anethole trithione]
- LogPoct [2]: 5.07

Compound: C=C(C)C1CC=C(C)C(=O)C1 (stereo not shown) [Carvone]
- LogSw [1]: −1.67 moles/L
- LogPoct [2]: 1.99

Compound: O=c1[nH]cnc2c1ncn2[C@H]1CC[C@@H](CO)O1 [Didanosine]
- LogSw [1]: −0.90 moles/L

Compound: O=C1Nc2ccc(Cl)cc2[C@@](C#CC2CC2)(C(F)(F)F)O1 [Efavirenz]
- LogSw [1]: −4.57 moles/L
- LogPoct [2]: 4.15

Compound: C=CC(=C)CCC=C(C)C [Myrcene]
- LogSw [1]: −3.58 moles/L
- LogPoct [2]: 3.41

Compound: CC(=O)Nc1nc2c(ncn2COCCOC(C)=O)c(=O)[nH]1 [N2,O-diacetylacyclovir]
- LogSw [1]: −2.70 moles/L
- LogPoct [2]: 2.75

Compound: CC(=O)Nc1nc2c(ncn2COCCO)c(=O)[nH]1 [N2-acetylacyclovir]
- LogPoct [2]: 2.17

Compound: CC(=O)OCCOCn1cnc2c(=O)[nH]c(N)nc21 [O-acetylacyclovir]
- LogSw [1]: −0.86 moles/L
- LogPoct [2]: 1.38

Compound: CC(=O)/C=C/C1C(C)=CCCC1(C)C (stereo not shown) [a-ionone]
- LogSw [1]: −3.06 moles/L

Compound: S=c1ccss1 [dithiolethione]
- LogPoct [2]: 2.59

Compound: C=C(C)[C@H]1CC=C(C)CC1 [limonene]
- LogSw [1]: −3.41 moles/L

Reference: patent publication US20040175401A1, “Enhanced parmacokinetic profile of hydrophobic substances” (priority 2001, published 2004)
